Measured values from publication PMC9833666, “Designing and identifying β-hairpin peptide macrocycles with antibiotic potential” (Science Advances, 2023).
Bridge positions count the residues as written; N and C are the ends. Peptide text beside a SMILES is read from it.

Tested on: Escherichia coli W3110
Assay type: cell-based
Conditions: for Ec W3110 MIC MH: E. coli W3110, MH medium; for Ec W3110 MIC RPMI: E. coli W3110, RPMI medium

SMILES	Ec W3110 MIC MH [µg/mL]	Ec W3110 MIC RPMI [µg/mL]	W3110 MIC MH [µg/mL]	W3110 MIC RPMI [µg/mL]	W3110 MIC [µg/mL]
CC[C@H](C)[C@@H]1NC(=O)[C@H](CCCNC(=N)N)NC(=O)[C@H](CC(C)C)NC(=O)[C@@H](N)CSSC[C@@H](C(=O)O)NC(=O)[C@H](C(C)C)NC(=O)[C@H](CCC(N)=O)NC(=O)[C@H](C(C)C)NC(=O)[C@H]([C@@H](C)O)NC(=O)[C@H]([C@@H](C)CC)NC(=O)[C@H](CCCNC(=N)N)NC(=O)[C@H](C(C)C)NC(=O)CNC(=O)CNC(=O)[C@H](CCCNC(=N)N)NC(=O)[C@H](CCCNC(=N)N)NC(=O)[C@H](CC(N)=O)NC(=O)[C@H](CC(N)=O)NC(=O)[C@H](C(C)C)NC(=O)[C@H](CCCNC(=N)N)NC1=O [SyRA-2] (H-CLRIRVNNRRGGVRITVQVC-OH; disulfide 1-20)	–	–	–	–	>256
CC[C@H](C)[C@@H]1NC(=O)[C@H](CCCNC(=N)N)NC(=O)[C@H](C(C)C)NC(=O)CNC(=O)[C@H](CO)NC(=O)[C@H](CCCNC(=N)N)NC(=O)CNC(=O)[C@H](CC(N)=O)NC(=O)[C@H](CC(=O)O)NC(=O)[C@H](CC(C)C)NC(=O)[C@H](CCCNC(=N)N)NC(=O)[C@H](C(C)C)NC(=O)[C@H]([C@@H](C)O)NC(=O)[C@H](C(C)C)NC(=O)[C@@H](N)CSSC[C@@H](C(=O)O)NC(=O)[C@H](C(C)C)NC(=O)[C@H](CCC(N)=O)NC(=O)[C@H](C(C)C)NC(=O)[C@H](CO)NC1=O [SyRA-13] (H-CVTVRLDNGRSGVRISVQVC-OH; disulfide 1-20)	–	–	–	–	>256
CC[C@H](C)[C@@H]1NC(=O)[C@H](CC(N)=O)NC(=O)[C@H](C(C)C)NC(=O)[C@H](CCCCN)NC(=O)[C@H]([C@@H](C)CC)NC(=O)[C@H](CCCNC(=N)N)NC(=O)[C@@H](N)CSSC[C@@H](C(=O)O)NC(=O)[C@H](CCC(N)=O)NC(=O)[C@H](CC(C)C)NC(=O)[C@H](CCC(N)=O)NC(=O)[C@H](CC(C)C)NC(=O)[C@H](CCCCN)NC(=O)[C@H](C(C)C)NC(=O)[C@H](CCCNC(=N)N)NC(=O)[C@H](CCCNC(=N)N)NC(=O)[C@H](CCCNC(=N)N)NC(=O)CNC(=O)[C@H](CC(N)=O)NC(=O)[C@H](CC(N)=O)NC1=O [SySA-34] (H-CRIKVNINNGRRRVKLQLQC-OH; disulfide 1-20; N-terminus and C-terminus assumed)	128	32	128	32	–
CC[C@H](C)[C@@H]1NC(=O)[C@H](CCCNC(=N)N)NC(=O)[C@H](C(C)C)NC(=O)[C@H](CCCNC(=N)N)NC(=O)[C@@H](N)CSSC[C@@H](C(=O)O)NC(=O)[C@H](CCC(N)=O)NC(=O)[C@H](C(C)C)NC(=O)[C@H](CCC(N)=O)NC(=O)[C@H](CC(C)C)NC(=O)[C@H](CCCNC(=N)N)NC(=O)[C@H](C(C)C)NC(=O)[C@H]([C@@H](C)O)NC(=O)CNC(=O)[C@H](CO)NC(=O)CNC(=O)[C@H](CC(=O)O)NC(=O)[C@H](CC(N)=O)NC(=O)[C@H](C(C)C)NC(=O)[C@H](CC(N)=O)NC1=O [SyRC-10] (H-CRVRINVNDGSGTVRLQVQC-OH; disulfide 1-20)	–	–	–	–	>256
CC[C@H](C)[C@@H]1NC(=O)[C@H](CCCCN)NC(=O)[C@H](CC(C)C)NC(=O)[C@H](CCCNC(=N)N)NC(=O)CNC(=O)CNC(=O)[C@H](CCCNC(=N)N)NC(=O)[C@H](CC(N)=O)NC(=O)[C@H](CC(N)=O)NC(=O)[C@H](C(C)C)NC(=O)[C@H](CCCNC(=N)N)NC(=O)[C@H](C(C)C)NC(=O)[C@H]([C@@H](C)O)NC(=O)[C@H](C(C)C)NC(=O)[C@@H](N)CSSC[C@@H](C(=O)O)NC(=O)[C@H](C(C)C)NC(=O)[C@H](CCC(N)=O)NC(=O)[C@H](CC(C)C)NC(=O)[C@H]([C@@H](C)O)NC1=O [SyRA-14] (H-CVTVRVNNRGGRLKITLQVC-OH; disulfide 1-20)	–	–	–	–	>256
CC[C@H](C)[C@@H]1NC(=O)[C@H](CCCNC(=N)N)NC(=O)[C@H](C(C)C)NC(=O)[C@H](CCCNC(=N)N)NC(=O)[C@H](CO)NC(=O)CNC(=O)CNC(=O)[C@H](CC(N)=O)NC(=O)[C@H](CC(N)=O)NC(=O)[C@H](C(C)C)NC(=O)[C@H](CCCNC(=N)N)NC(=O)[C@H]([C@@H](C)CC)NC(=O)[C@H](CCCNC(=N)N)NC(=O)[C@H](CC(C)C)NC(=O)[C@@H](N)CSSC[C@@H](C(=O)O)NC(=O)[C@H](C(C)C)NC(=O)[C@H](CCC(=O)O)NC(=O)[C@H](CC(C)C)NC(=O)[C@H](CO)NC1=O [SyRA-10] (H-CLRIRVNNGGSRVRISLEVC-OH; disulfide 1-20)	–	–	–	–	>256

Next, values leading:

Ec W3110 MIC MH [µg/mL]	Ec W3110 MIC RPMI [µg/mL]	W3110 MIC MH [µg/mL]	W3110 MIC RPMI [µg/mL]	W3110 MIC [µg/mL]	SMILES
32	16	32	16	–	CC[C@H](C)[C@@H]1NC(=O)[C@H](CCCCN)NC(=O)[C@H](CC(C)C)NC(=O)[C@H](CCCNC(=N)N)NC(=O)[C@H](CCCNC(=N)N)NC(=O)[C@H](CCCNC(=N)N)NC(=O)[C@H](CCCNC(=N)N)NC(=O)[C@H](CC(N)=O)NC(=O)[C@H](CC(N)=O)NC(=O)[C@H](CC(C)C)NC(=O)[C@H](CCCNC(=N)N)NC(=O)[C@H](C(C)C)NC(=O)[C@H](CCCNC(=N)N)NC(=O)[C@H](C(C)C)NC(=O)[C@@H](N)CSSC[C@@H](C(=O)O)NC(=O)[C@H](C(C)C)NC(=O)[C@H](CCC(=O)O)NC(=O)[C@H](CC(C)C)NC(=O)[C@H](CO)NC1=O [SySA-78] (H-CVRVRLNNRRRRLKISLEVC-OH; disulfide 1-20; N-terminus and C-terminus assumed)
16	16	16	16	–	CC[C@H](C)[C@@H]1NC(=O)[C@H](CCCNC(=N)N)NC(=O)[C@H](C(C)C)NC(=O)[C@@H](N)CSSC[C@@H](C(=O)O)NC(=O)[C@H](C(C)C)NC(=O)[C@H](CCC(N)=O)NC(=O)[C@H](CC(C)C)NC(=O)[C@H]([C@@H](C)O)NC(=O)[C@H](C(C)C)NC(=O)[C@H](CCCCN)NC(=O)[C@H](C(C)C)NC(=O)[C@H](CCCNC(=N)N)NC(=O)[C@H](CCCNC(=N)N)NC(=O)[C@H](CCCNC(=N)N)NC(=O)[C@H](CCCNC(=N)N)NC(=O)[C@H](CC(N)=O)NC(=O)[C@H](CC(N)=O)NC(=O)[C@H](CC(C)C)NC(=O)[C@H](CCCNC(=N)N)NC1=O [SySA-80] (H-CVRIRLNNRRRRVKVTLQVC-OH; disulfide 1-20; N-terminus and C-terminus assumed)
256	8	256	8	–	CC[C@H](C)[C@@H]1NC(=O)[C@H](CCCNC(=N)N)NC(=O)[C@H](C(C)C)NC(=O)[C@@H](N)CSSC[C@@H](C(=O)O)NC(=O)[C@H](C(C)C)NC(=O)[C@H](CCC(N)=O)NC(=O)[C@H](CC(C)C)NC(=O)[C@H](CO)NC(=O)[C@H](C(C)C)NC(=O)[C@H](CCCCN)NC(=O)[C@H](C(C)C)NC(=O)CNC(=O)[C@H](CO)NC(=O)[C@H](CCCNC(=N)N)NC(=O)[C@H](CCCNC(=N)N)NC(=O)[C@H](CC(N)=O)NC(=O)[C@H](CC(N)=O)NC(=O)[C@H](C(C)C)NC(=O)[C@H](CCCNC(=N)N)NC1=O [SySA-38] (H-CVRIRVNNRRSGVKVSLQVC-OH; disulfide 1-20; N-terminus and C-terminus assumed)
